Here are results for one compound from US8129381B2, “Caspase inhibitors and uses thereof” (Vertex Pharmaceuticals Incorporated, priority 2002, dated 2012).

For orientation: IC50 means the concentration needed to halve the response being measured.

The target in assay [1] is T1, recombinant, purified human Caspase-1 (Homo sapiens, UniProt P29466).
T1 sequence (P29466 120-297 limits assumed): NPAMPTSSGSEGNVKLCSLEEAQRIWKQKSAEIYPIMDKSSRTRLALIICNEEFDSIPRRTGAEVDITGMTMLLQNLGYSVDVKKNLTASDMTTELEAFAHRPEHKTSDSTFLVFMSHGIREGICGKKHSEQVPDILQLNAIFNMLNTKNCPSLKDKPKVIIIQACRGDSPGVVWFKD
T1 sequence (P29466 317-404 limits assumed): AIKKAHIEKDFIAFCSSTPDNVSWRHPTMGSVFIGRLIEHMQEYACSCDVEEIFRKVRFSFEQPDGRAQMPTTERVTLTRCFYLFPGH
The assay is described as follows: Enzyme assay, caspase inhibition (fluorogenic substrate cleavage). The class given is biochemical. The settings on record: second order rate constant of enzyme inactivation; substrate Acetyl-Tyr-Val-Ala-Asp-amino-4-methylcoumarin. The source says: (§1) The assays for caspase inhibition are based on the cleavage of a fluorogenic substrate by recombinant, purified human Caspases −1, −3, −7 or −8. The assays are run in essentially the same way as those reported by Garcia-Calvo et al., J. Biol. Chem. 273, 32608-32613 (1998), using a substrate specific for each enzyme. The substrate for Caspase-1 is Acetyl-Tyr-Val-Ala-Asp-amino-4-methylcoumarin and the substrate for Caspases −3, −7 and −8 is Acetyl-Asp-Glu-Val-Asp-amino-4-methylcoumarin both as disclosed in Garcia-Calvo et al., J. Biol. Chem. 273, 32608-32613 (1998).
(§2) The observed rate of enzyme inactivation at a particular inhibitor concentration, kobs, is computed by direct fits of the data to the equation derived by Thornberry et al., Biochemistry, 33, […] (1994) using a nonlinear least-squares analysis computer program (PRISM 2.0; GraphPad software). To obtain the second order rate constant, kinact, kobs values are plotted against their respective inhibitor concentrations and kinact values are subsequently calculated by computerized linear regression.
(§3) Compounds with kinact(M^−1s^−1)>500000 are listed as “A”. Compounds with kinact(M^−1s^−1) between 100000 and 500000 are listed as “B”. Compounds with kinact(M^−1s^−1)<100000 are listed as “C”.

Assay [2] has as its target T2, recombinant, purified human Caspase-3 (Homo sapiens, UniProt P42574).
T2 sequence (P42574 29-175 limits assumed): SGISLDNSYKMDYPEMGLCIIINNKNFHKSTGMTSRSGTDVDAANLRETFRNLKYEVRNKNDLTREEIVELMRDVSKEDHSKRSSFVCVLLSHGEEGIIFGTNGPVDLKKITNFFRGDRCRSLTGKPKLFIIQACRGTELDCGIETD
T2 sequence (P42574 176-277 limits assumed): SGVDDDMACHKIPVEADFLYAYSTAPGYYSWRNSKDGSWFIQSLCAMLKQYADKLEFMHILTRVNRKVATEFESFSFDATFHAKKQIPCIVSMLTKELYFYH
Described as above. The settings on record: second order rate constant of enzyme inactivation; substrate Acetyl-Asp-Glu-Val-Asp-amino-4-methylcoumarin. The class given is biochemical.
From the text: as §1, §2, §3

The target in assay [3] is recombinant, purified human Caspase-8 (Homo sapiens, UniProt Q14790). Described as above. In kind it is biochemical. The settings on record: second order rate constant of enzyme inactivation; substrate Acetyl-Asp-Glu-Val-Asp-amino-4-methylcoumarin.
From the text: as §1, §2, §3

The subject of assay [4] is IL-1β secretion from human whole blood. The assay is described as follows: Inhibition of IL-1β secretion from whole blood. Particulars: human whole blood diluted 1:2 in PBS, LPS 5 ng/ml, 18 hours, ELISA. The class given is cell-based. As for the experimental part: Human blood is freshly drawn from healthy donors and diluted 1:2 in PBS. To 500 μl of diluted blood […] of prediluted test compound in RPMI medium and […] LPS (5 ng/ml final concentration on the plate) are added (LPS, Serotype 0111:B4, Sigma L3012). After stimulation for 18 hours supernatants are collected and assayed for IL-1β levels using the appropriate ELISA kit (R&D systems).
Compounds with an IC50>10 μM are listed as “A”. Compounds with an IC50 between 1 μM and 10 uM are listed as “B”. Compounds with an IC50<1 μM are listed as “C”.
Background: In an ELISA, binding on a coated surface is turned into a signal by an enzyme label.

Assay [5] has as its system rat cortical neurons. The assay is described as follows: Hypoxia-induced apoptosis of rat cortical neurons. In kind it is cell-based, Wistar rat. The settings on record: Cortical neurone, oxygen-depleted serum-free medium, Cell Death Detection ELISA (DNA fragmentation). As for the experimental part: Cortical neurons are dissociated from Wistar rat embryos (E17) by a modification of the procedure of Rogers et al., Brain Res. Bulletin, 44:131 (1998). Briefly, cerebral cortices are isolated aseptically from 15-20 Wistar rat embryos. A cell suspension is prepared by mincing the cerebral cortices and digesting them with papain. Cells are washed with ovomucoid enzyme inhibitor and DNaseI and plated onto Poly-D lysine coated plates in high glucose DMEM containing 10% heat-inactivated fetal calf serum, L-glutamine, penicillin and streptomycin. The yield of neurons is […] per embryo and they are 80-90% viable as assessed by Trypan blue exclusion.
The neurons are cultured in complete medium at 37° C. in a normal atmosphere for 48 hours prior to the hypoxia experiments. For hypoxia, the normal cell medium is replaced by oxygen-depleted serum-free medium. Cells are incubated in an atmosphere of 95% N2/5% CO2 for various lengths of time. Compounds are dissolved in DMSO at 100 mM then diluted in medium and added to the culture from time=0. The level of apoptosis is measured using a Cell Death Detection ELISA kit (Roche) which detects DNA fragmentation. Plates are read at 405 nm. Controls included cells cultured in aerobic conditions in serum-containing medium (+serum) and cells cultured in aerobic conditions in serum-deprived medium (−serum).
Compounds with an IC50>0.5 μM are listed as “A”. Compounds with an IC50 between 0.1 μM and 0.5 uM are listed as “B”. Compounds with an IC50<0.1 μM are listed as “C”.

Chain of recombinant, purified human Caspase-8 (Q14790 217-374 limits assumed): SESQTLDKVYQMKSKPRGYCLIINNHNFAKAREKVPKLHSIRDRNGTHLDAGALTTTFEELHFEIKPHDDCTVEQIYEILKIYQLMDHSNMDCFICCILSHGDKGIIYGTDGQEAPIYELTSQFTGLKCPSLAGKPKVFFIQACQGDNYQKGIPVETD
Chain of recombinant, purified human Caspase-8 (Q14790 385-479 limits assumed): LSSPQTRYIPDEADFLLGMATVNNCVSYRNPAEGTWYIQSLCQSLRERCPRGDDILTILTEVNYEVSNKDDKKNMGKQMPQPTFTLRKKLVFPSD

In the case of `CCCSc1ccc2ncn([C@@H](CC)C(=O)NC(CC(=O)O)C(=O)CF)c(=O)c2c1` (stereo partly drawn) [Compound 22, 5-Fluoro-4-oxo-3-[(2S)-2-(4-oxo-6-propylsulfanyl-4H-quinazolin-3-yl)-butyrylamino]-pentanoic acid], in assay [1], the “kinact Caspase-1” value is recorded as “A (Compounds with kinact(M^−1s^−1)>500000 are listed as “A”)”. In addition, the “kinact Caspase-3” value in assay [2] is “A (Compounds with kinact(M^−1s^−1)>500000 are listed as “A”)”. Also, the “kinact Caspase-8” value in assay [3] is listed as “A (Compounds with kinact(M^−1s^−1)>500000 are listed as “A”)”. The IC50 was below 1 µM in assay [4] and above 0.5 µM in assay [5].
